Measurements published in patent US11504382B2, “Tricyclic inhibitors of Hepatitis B virus” (Antios Therapeutics, Inc., priority 2018, dated 2022).

Test system: HBV
Test: HBV inhibition assay in HepAD38 cells (extracellular HBV DNA by direct qPCR)
Assay type: cell-based, Hepatitis B virus
Details: 0.1 μM, 96 hours, relative to non-treated reference

Compound	Anti HBV Activity (conc μM)
Ethyl 8-((4-fluoro-3-methylphenyl)carbamoyl)-7-methyl-3a,4,10,10a-tetrahydro-1H,7H-dipyrrolo[3,4-b:3′,4′-f][1,4,5]oxathiazocine-2(3H)-carboxylate 5,5-dioxide (3aS,10aS) [Example E40]	B (0.1) (HBV inhibition less than 50% at the concentration indicated in the table)

Same assay, conditions: 96 hours, 8-point dose-response curve, read-out: HBV inh EC50

Compound	EC50
Cc1cc(NC(=O)c2c3c(cn2C)S(=O)(=O)NC2CN(C(=O)c4ncoc4C)CCC2CO3)ccc1F (racemic) [Example E144, Trans-N-(4-fluoro-3-methylphenyl)-2-methyl-7-(5-methyloxazole-4-carbonyl)-5,5a,6,7,8,9,9a,10-octahydro-2H-pyrido[3,4-f]pyrrolo[3,4-b][1,4,5]oxathiazocine-1-carboxamide 4,4-dioxide]	< 1 µM
Cc1nnc(C(=O)N2CC3NS(=O)(=O)c4cn(C)c(C(=O)Nc5ccc(F)c(C)c5)c4OCC3(C)C2)o1 (single isomer, unassigned) [Example E95, N-(4-fluoro-3-methylphenyl)-7,10a-dimethyl-2-(5-methyl-1,3,4-oxadiazole-2-carbonyl)-2,3,3a,4,10,10a-hexahydro-1H,7H-dipyrrolo[3,4-b:3′,4′-f][1,4,5]oxathiazocine-8-carboxamide 5,5-dioxide (Chiral 3aS,10aS or 3aR,10aR - Stereochemistry unknown)]	< 1 µM

Same assay, conditions: Hepatitis B virus, 0.05 μM, 96 hours, relative to non-treated reference, read-out: Anti HBV Activity (conc μM)

Compound	inhibition at 0.05 µM
CCOC(=O)N1C[C@H]2NS(=O)(=O)c3cn(C)c(C(=O)Nc4cc(F)c(F)c(F)c4)c3OC[C@@]2(C)C1 (relative stereo) [Example E85, cis-ethyl 7,10a-dimethyl-8-((3,4,5-trifluorophenyl)carbamoyl)-3a,4,10,10a-tetrahydro-1H,7H-dipyrrolo[3,4-b:3′,4′-f][1,4,5]oxathiazocine-2(3H)-carboxylate 5,5-dioxide]	> 50%

Same assay, conditions: Hepatitis B virus, 0.1 μM, 96 hours, relative to non-treated reference, read-out: Anti HBV Activity (conc μM)

Compound	inhibition at 0.1 µM
Cc1cc(NC(=O)c2c3c(cn2C)S(=O)(=O)NC2CN(C(=O)c4cccnc4)CC2CO3)ccc1F (stereo not drawn) [Example E54, cis-N-(4-fluoro-3-methylphenyl)-7-methyl-2-nicotinoyl-2,3,3a,4,10,10a-hexahydro-1H,7H-dipyrrolo[3,4-b:3′,4′-f][1,4,5]oxathiazocine-8-carboxamide 5,5-dioxide]	> 50%
Cn1cc2c(c1C(=O)Nc1cc(F)c(F)c(F)c1)OCC1CN(C(=O)CO)CC1NS2(=O)=O (stereo not drawn) [Example E71, cis-2-(2-hydroxyacetyl)-7-methyl-N-(3,4,5-trifluorophenyl)-2,3,3a,4,10,10a-hexahydro-1H,7H-dipyrrolo[3,4-b:3′,4′-f][1,4,5]oxathiazocine-8-carboxamide 5,5-dioxide]	< 50%
Cn1cc2c(c1C(=O)Nc1cc(F)c(F)c(F)c1)OCC1CN(C(=O)OC3CO[C@H]4OCC[C@@H]34)CC1NS2(=O)=O (mixture of isomers) [Example E22, cis-(3R,3aS,6aR)-hexahydrofuro[2,3-b]furan-3-yl 7-methyl-8-((3,4,5-trifluorophenyl)carbamoyl)-3a,4,10,10a-tetrahydro-1H,7H-dipyrrolo[3,4-b:3′,4′-f][1,4,5]oxathiazocine-2(3H)-carboxylate 5,5-dioxide]	> 50%
CCOC(=O)N1CC2COc3c(cn(C)c3C(=O)Nc3ccc(F)c(C(F)F)c3)S(=O)(=O)NC2C1 (racemic) [Example E16, Cis-Ethyl 8-((3-(difluoromethyl)-4-fluorophenyl)carbamoyl)-7-methyl-3a,4,10,10a-tetrahydro-1H,7H-dipyrrolo[3,4-b:3′,4′-f][1,4,5]oxathiazocine-2(3H)-carboxylate 5,5-dioxide]	> 50%
Cn1cc2c(c1C(=O)Nc1cc(F)c(F)c(F)c1)OCC1CN(C(=O)OC(C)(C)C)CC1NS2(=O)=O (racemic) [Example E24, Tert-Butyl (3aS,10aS and 3aR,10aR) 7-methyl-8-((3,4,5-trifluorophenyl)carbamoyl)-3a,4,10,10a-tetrahydro-1H,7H-dipyrrolo[3,4-b:3′,4′-f][1,4,5]oxathiazocine-2(3H)-carboxylate 5,5-dioxide]	> 50%

Same assay, conditions: Hepatitis B virus, 0.5 μM, 96 hours, relative to non-treated reference, read-out: Anti HBV Activity (conc μM)

Compound	inhibition at 0.5 µM
Cn1cc2c(c1C(=O)Nc1ccc(F)c(F)c1)OC[C@@]1(O)CCC[C@H]1NS2(=O)=O (racemic) [Example E30, cis-N-(3,4-difluorophenyl)-8a-hydroxy-2-methyl-5a,6,7,8,8a,9-hexahydro-2H,5H-cyclopenta[f]pyrrolo[3,4-b][1,4,5]oxathiazocine-1-carboxamide 4,4-dioxide]	< 50%

Same assay, conditions: Hepatitis B virus, 96 hours, 8-point dose-response curve, read-out: HBV inh EC50

Compound	EC50
CCOC(=O)N1CC2CNc3c(cn(C)c3C(=O)Nc3ccc(F)c(C)c3)S(=O)(=O)NC2C1 (stereo not drawn) [Example E157, Cis Ethyl 8-((4-fluoro-3-methylphenyl)carbamoyl)-7-methyl-3a,4,7,9,10,10a-hexahydro-1H-dipyrrolo[3,4-c:3′,4′-g][1,2,6]thiadiazocine-2(3H)-carboxylate 5,5-dioxide]	> 1 µM
CCOC(=O)N1C[C@H]2C[S+]([O-])c3c(cn(C)c3C(=O)Nc3ccc(F)c(C)c3)S(=O)(=O)N[C@H]2C1 (stereo partly drawn) [Example E122, Ethyl (3aR,10aR)-8-((4-fluoro-3-methylphenyl)carbamoyl)-7-methyl-3a,4,10,10a-tetrahydro-1H,7H-dipyrrolo[3,4-c:3′,4′-g][1,6,2]dithiazocine-2(3H)-carboxylate 5,5,9-trioxide]	< 1 µM
Cc1cc(NC(=O)c2c3c(cn2C)S(=O)(=O)NC2CN(C(=O)c4ncoc4C)CCC2CO3)ccc1F (racemic) [Example E139, Cis-N-(4-fluoro-3-methylphenyl)-2-methyl-7-(5-methyloxazole-4-carbonyl)-5,5a,6,7,8,9,9a,10-octahydro-2H-pyrido[3,4-f]pyrrolo[3,4-b][1,4,5]oxathiazocine-1-carboxamide 4,4-dioxide]	< 1 µM
Cc1nnc(C(=O)N2C[C@H]3COc4c(cn(C)c4C(=O)Nc4ccc(F)c(C)c4)S(=O)(=O)N[C@@H]3C2)o1 (relative stereo) [Example E146, Trans-N-(4-fluoro-3-methylphenyl)-7-methyl-2-(5-methyl-1,3,4-oxadiazole-2-carbonyl)-2,3,3a,4,10,10a-hexahydro-1H,7H-dipyrrolo[3,4-b:3′,4′-f][1,4,5]oxathiazocine-8-carboxamide 5,5-dioxide]	< 1 µM
Cc1noc(N2C[C@H]3COc4c(cn(C)c4C(=O)Nc4ccc(F)c(C)c4)S(=O)(=O)N[C@H]3C2)n1 [Example E115, (3aR,10aR)—N-(4-fluoro-3-methylphenyl)-7-methyl-2-(3-methyl-1,2,4-oxadiazol-5-yl)-2,3,3a,4,10,10a-hexahydro-1H,7H-dipyrrolo[3,4-b:3′,4′-f][1,4,5]oxathiazocine-8-carboxamide 5,5-dioxide]	< 1 µM
Cn1cc2c(c1C(=O)Nc1cc(F)c(F)c(F)c1)OCC1CN(C(=O)c3nonc3N)CC1NS2(=O)=O (stereo not drawn) [Example E60, cis-2-(4-amino-1,2,5-oxadiazole-3-carbonyl)-7-methyl-N-(3,4,5-trifluorophenyl)-2,3,3a,4,10,10a-hexahydro-1H,7H-dipyrrolo[3,4-b:3′,4′-f][1,4,5]oxathiazocine-8-carboxamide 5,5-dioxide]	< 1 µM
Cn1cc2c(c1C(=O)Nc1cc(F)c(F)c(F)c1)OCC1CN(C(=O)OC3CO[C@H]4OCC[C@@H]34)CC1NS2(=O)=O (mixture of isomers) [Example E22, cis-(3R,3aS,6aR)-hexahydrofuro[2,3-b]furan-3-yl 7-methyl-8-((3,4,5-trifluorophenyl)carbamoyl)-3a,4,10,10a-tetrahydro-1H,7H-dipyrrolo[3,4-b:3′,4′-f][1,4,5]oxathiazocine-2(3H)-carboxylate 5,5-dioxide]	< 1 µM
CCOC(=O)N1CC2COc3c(cn(C)c3C(=O)Nc3ccc(F)c(C(F)F)c3)S(=O)(=O)NC2C1 (racemic) [Example E16, Cis-Ethyl 8-((3-(difluoromethyl)-4-fluorophenyl)carbamoyl)-7-methyl-3a,4,10,10a-tetrahydro-1H,7H-dipyrrolo[3,4-b:3′,4′-f][1,4,5]oxathiazocine-2(3H)-carboxylate 5,5-dioxide]	< 1 µM
CCOC(=O)N1C[C@H]2C[C@@H]1COc1c(cn(C)c1C(=O)Nc1cc(F)c(F)c(F)c1)S(=O)(=O)N2 [Example E77, Ethyl (3R,6R)-10-methyl-9-((3,4,5-trifluorophenyl)carbamoyl)-3,4,6,7-tetrahydro-10H-3,6-methanopyrrolo[3,4-b][1,4,5,8]oxathiadiazecine-5(2H)-carboxylate 1,1-dioxide]	< 1 µM
Cc1cc(NC(=O)c2c3c(cn2C)S(=O)(=O)N[C@H]2CN(C(=O)c4cnon4)C[C@H]2CO3)ccc1F [Example E105, (3aR,10aR)—N-(4-fluoro-3-methylphenyl)-7-methyl-2-(1,2,5-oxadiazole-3-carbonyl)-2,3,3a,4,10,10a-hexahydro-1H,7H-dipyrrolo[3,4-b:3′,4′-f][1,4,5]oxathiazocine-8-carboxamide 5,5-dioxide]	< 1 µM
Cc1cc(NC(=O)c2c3c(cn2C)S(=O)(=O)N[C@H]2CN(C(=O)[C@H]4CCCO4)C[C@H]2CO3)ccc1F [Example E100, (3aR,10aR)—N-(4-fluoro-3-methylphenyl)-7-methyl-2-((R)-tetrahydrofuran-2-carbonyl)-2,3,3a,4,10,10a-hexahydro-1H,7H-dipyrrolo[3,4-b:3′,4′-f][1,4,5]oxathiazocine-8-carboxamide 5,5-dioxide]	< 1 µM
Cc1noc(N2C[C@H]3COc4c(cn(C)c4C(=O)Nc4ccc(F)c(Cl)c4)S(=O)(=O)N[C@H]3C2)n1 [Example E116, (3aR,10aR)—N-(3-chloro-4-fluorophenyl)-7-methyl-2-(3-methyl-1,2,4-oxadiazol-5-yl)-2,3,3a,4,10,10a-hexahydro-1H,7H-dipyrrolo[3,4-b:3′,4′-f][1,4,5]oxathiazocine-8-carboxamide 5,5-dioxide]	< 1 µM
Cc1noc(N2C[C@H]3COc4c(cn(C)c4C(=O)Nc4cc(F)c(F)c(F)c4)S(=O)(=O)N[C@H]3C2)n1 [Example E117, (3aR,10aR)-7-methyl-2-(3-methyl-1,2,4-oxadiazol-5-yl)-N-(3,4,5-trifluorophenyl)-2,3,3a,4,10,10a-hexahydro-1H,7H-dipyrrolo[3,4-b:3′,4′-f][1,4,5]oxathiazocine-8-carboxamide 5,5-dioxide]	< 1 µM
Cc1cc(NC(=O)c2c3c(cn2C)S(=O)(=O)N[C@H]2CN(C(=O)C4COC4)C[C@H]2CO3)ccc1F [Example E108, (3aR,10aR)—N-(4-fluoro-3-methylphenyl)-7-methyl-2-(oxetane-3-carbonyl)-2,3,3a,4,10,10a-hexahydro-1H,7H-dipyrrolo[3,4-b:3′,4′-f][1,4,5]oxathiazocine-8-carboxamide 5,5-dioxide]	< 1 µM
Cc1nnc(C(=O)N2C[C@H]3COc4c(cn(C)c4C(=O)Nc4ccc(F)c(C)c4)S(=O)(=O)N[C@@H]3C2)o1 (single isomer, unassigned) [Example E153]	< 1 µM
